Assay results: patent publication US20240307525A1 (priority 2020, published 2024)

What was measured:
Assay in all cases: microbe, parasite or virus in culture
Assay type in all cases: cell-based, SARS-COV-2
rSARS-COV-2-mCherry = settings: Severe acute respiratory syndrome coronavirus 2, Vero C1008
rSARS-COV-2-Venus = settings: Severe acute respiratory syndrome coronavirus 2, Vero C1008
rSARS-COV-2-Nluc = settings: Severe acute respiratory syndrome coronavirus 2, Vero C1008, 48 h
rSARS-COV-2/WT = settings: Severe acute respiratory syndrome coronavirus 2, Vero C1008

CCC(CC)COC(=O)[C@H](C)N[P@](=O)(OC[C@H]1O[C@@](C#N)(c2ccc3c(N)ncnn23)[C@H](O)[C@@H]1O)Oc1ccccc1 [Remdesivir] was tested. Which EC50 (rSARS-COV-2-mCherry) did it give?
The EC50 was 1780 nM.

What about the EC50 (rSARS-COV-2-Venus) of the same compound?
The EC50 was 1070 nM.

And the EC50 (rSARS-COV-2-Nluc)?
The EC50 was 1790 nM.

And the EC50 (rSARS-COV-2/WT)?
Its EC50 is 1510 nM.
